Results: patent US20260191923A1, “COMPOSITIONS” (GIVAUDAN SA, priority 2022, published 2026)

What was measured:
Assay type in all cases: cell-based
human gut microbiome [1] = assay: Short term colonic simulation: changes in community composition by 16S-targeted Illumina sequencing (heat map, LEfSe, beta diversity); settings: after 48 hours; ascorbic acid 1.67 g/L; comparator not stated
Description: The test products used in these experiments included a red acerola fruit powder containing 20% vitamin C and a green acerola fruit powder containing 34% vitamin C provided by Naturex-Givaudan. Commercial synthetic ascorbic acid and a 55:45 mixture of fructose and glucose served as relevant control groups. The test products contained a fraction of digestible compounds (sugar, for e.g.) that, in vivo, are absorbed in the small intestine following conversion to small molecules by digestive enzymes. […] Stock solutions of test products and controls were prepared and exposed to conditions simulating oral, gastric, and small intestinal passage. […]
Sampling was performed periodically with a syringe through a rubber septum. […] Changes in ammonium production were assessed by sampling at the start of incubation and after 48 hours. […]
The methodology applied involves primers that span 2 hypervariable regions (V3-V4) of the 16S rRNA gene, i.e. primers 341F-785R described in Bekliz et al (Bekliz, M., Pramateftaki, P., Battin, T. J. et al. Viral diversity is linked to bacterial community composition in alpine stream biofilms. ISME COMMUN. 2, 27 (2022). https://doi.org/10.1038/s43705-022-00112-9). […] Read assembly and cleanup was largely derived from the MiSeq SOP described by the Schloss lab. […]

human gut microbiome [2] = assay: Short term colonic simulation (48 hours colonic fermentation): overall fermentative activity, pH and gas production; settings: pre-digested products, fecal inoculum of a single human donor, triplicate; 0-6 hours; doses of Table 1
Description: (§1) The test products used in these experiments included a red acerola fruit powder containing 20% vitamin C and a green acerola fruit powder containing 34% vitamin C provided by Naturex-Givaudan. Commercial synthetic ascorbic acid and a 55:45 mixture of fructose and glucose served as relevant control groups. The test products contained a fraction of digestible compounds (sugar, for e.g.) that, in vivo, are absorbed in the small intestine following conversion to small molecules by digestive enzymes. […] Stock solutions of test products and controls were prepared and exposed to conditions simulating oral, gastric, and small intestinal passage. Typically, a dialysis procedure is employed to simulate absorption of small molecules in the small intestine, but this step was omitted for these test products, as the dialysis procedure would lead to losses of compounds in acerola (polyphenols) that would reach the colon in vivo and exert an effect on the microbiome. […] Changes in ammonium production were assessed by sampling at the start of incubation and after 48 hours. Analysis of microbial community structure was performed at the start of the incubation and after 48 hours. pH was measured in each reactor at each time point as a single repetition. Gas production was measured in the headspace of the fermentation vessels as a single repetition.

human gut microbiome [3] = assay: Short term colonic simulation: microbial metabolite (SCFA) production by capillary gas chromatography-FID; settings: 48 hours colonic fermentation; acerola 3.5 g/L, sugar control 1.75 g/L, ascorbic acid 1.67 g/L; FIG. 1
Description: as §1, with “microbiome. A 48 hours colonic fermentation was performed in the presence of test compounds and relevant controls to determine the effect of the test products on the gut microbiome.” for “microbiome.”, “[…] Quantitative analysis” for “Analysis of microbial community structure was performed at the start”, “SCFA” for “incubation and after 48 hours. pH”, “done by means of capillary gas chromatography, coupled with” for “measured in each reactor at each time point as”, “flame ionization detector (FID). […]” for “single repetition. Gas production was measured in the headspace of the fermentation vessels as a single repetition.”

Question: Which “strongest enrichments (LEfSe), OTUs of the genera/families” value (human gut microbiome [1]) does the source give for `O=C1O[C@H]([C@@H](O)CO)C(O)=C1O` [Ascorbic acid, ascorbic acid] here?
Answer: Bacteroides, Lachnoclostridium, GCA-900066575, Anaerostipes, Agathobacter, Oscillibacter, Alistipes, Lachnospiraceae, Flavonifractor, Coprococcus and Blautia

Question: What about the pH shift (human gut microbiome [2]) of the same compound?
Answer: failed to produce a significant shift in pH

Question: What about the propionate production (human gut microbiome [3]) of the same compound?
Answer: Each product, except ascorbic acid, stimulated propionate production
